These results are taken from patent publication US12545673B2, “Imidazopyridine derivative and pharmaceutical composition comprising same as active ingredient” (TSD LIFE SCIENCES CO., LTD., priority 2019, dated 2026).

Experiment [1] deals with acute myeloid leukemia cell line U937. Briefly: Cancer cell proliferation inhibitory activity evaluation 2 (CCK-8), U937. It is filed as cell-based. Particulars: Homo sapiens, read-out: Cancer cell proliferation inhibitory activity U937. As to the method:
(§1) In order to identify whether the compounds have anticancer activity, the acute myeloid leukemia cell line U937, the acute lymphoblastic leukemia cell line Jurkat, the gastric cancer cell lines AGS, […], and the human lung cancer cell line A549 were used. The cell line was cultured using RPMI-1640 medium (U937, Jurkat, AGS, A549) or DMEM (Hs746T) medium containing 10% fetal bovine serum. Welgene products were used as the medium, and hyclone products were used for fetal bovine serum, and 1% of antibiotics for cell culture from Gibco were used as the culture medium.

Experiment [2] has as its system gastric cancer cell line Hs746T. Briefly: Cancer cell proliferation inhibitory activity evaluation 2 (CCK-8), Hs746T. It is filed as cell-based. The conditions noted are these: Homo sapiens. The protocol:
as §1

In experiment [3] the test system is gastric cancer cell line AGS. Nature of the experiment: Cancer cell proliferation inhibitory activity evaluation 2 (CCK-8), AGS. It is filed as cell-based. Particulars: Homo sapiens, read-out: Cancer cell proliferation inhibitory activity AGS. The protocol:
as §1

Experiment [4] concerns human lung cancer cell line A549. Nature of the experiment: Cancer cell proliferation inhibitory activity evaluation 2 (CCK-8), A549. It is filed as cell-based. The protocol:
as §1

In experiment [5] the test system is acute lymphoblastic leukemia cell line Jurkat. Briefly: Cancer cell proliferation inhibitory activity evaluation 2 (CCK-8), Jurkat. The class given is cell-based. The conditions noted are these: Homo sapiens. As to the method:
as §1

Experiment [6] addresses MLK1 (Homo sapiens (Human), UniProt P80192). Nature of the experiment: Evaluation of inhibitory activity of enzyme units, MLK1 ([γ-33P]-ATP filter assay). The class given is biochemical.
The target in experiment [7] is MLK3 (Homo sapiens (Human), UniProt Q16584). Nature of the experiment: Evaluation of inhibitory activity of enzyme units, MLK3 ([γ-33P]-ATP filter assay). The conditions noted are these: read-out: IC50(nM) MLK3.
Sequence of MLK3 (Q16584 whole entry, looked up): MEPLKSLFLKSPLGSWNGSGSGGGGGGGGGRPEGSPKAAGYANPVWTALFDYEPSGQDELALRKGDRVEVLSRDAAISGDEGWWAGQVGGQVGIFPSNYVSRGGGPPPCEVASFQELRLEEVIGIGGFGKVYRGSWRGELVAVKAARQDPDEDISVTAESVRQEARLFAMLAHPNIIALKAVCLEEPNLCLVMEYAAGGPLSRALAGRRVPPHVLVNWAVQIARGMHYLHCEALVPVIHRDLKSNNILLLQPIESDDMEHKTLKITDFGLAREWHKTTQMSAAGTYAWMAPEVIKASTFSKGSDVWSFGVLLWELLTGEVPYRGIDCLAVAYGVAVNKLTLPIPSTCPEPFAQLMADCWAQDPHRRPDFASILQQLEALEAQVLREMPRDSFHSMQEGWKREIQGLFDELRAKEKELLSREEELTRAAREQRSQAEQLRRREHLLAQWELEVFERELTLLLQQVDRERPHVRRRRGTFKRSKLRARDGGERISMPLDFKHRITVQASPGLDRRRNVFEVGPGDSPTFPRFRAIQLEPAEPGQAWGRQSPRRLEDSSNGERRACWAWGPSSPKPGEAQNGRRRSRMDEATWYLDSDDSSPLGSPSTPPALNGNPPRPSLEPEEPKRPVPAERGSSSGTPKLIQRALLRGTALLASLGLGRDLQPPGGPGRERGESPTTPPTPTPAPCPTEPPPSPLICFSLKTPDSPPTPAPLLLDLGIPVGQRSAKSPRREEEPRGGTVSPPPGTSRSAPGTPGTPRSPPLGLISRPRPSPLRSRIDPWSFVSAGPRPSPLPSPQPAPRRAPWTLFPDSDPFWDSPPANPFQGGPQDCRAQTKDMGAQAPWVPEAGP
Setting [8] is: 72 h, read-out: Cancer cell proliferation inhibitory activity Hs746T.
[9] abbreviates: A549, 72 h, read-out: Cancer cell proliferation inhibitory activity A549.
Where [10] appears, read: 72 h, read-out: Cancer cell proliferation inhibitory activity Jurkat.
Where [11] appears, read: U-937, 10 μM, 72 hours, CCK-8 (Table 3).
[12] abbreviates: 10 μM, 72 hours, CCK-8, read-out: Cancer cell proliferation inhibitory activity Hs746T.
Where [13] appears, read: A549, 10 μM, 72 hours, CCK-8, read-out: Cancer cell proliferation inhibitory activity A549.
[14] abbreviates: 10 μM, 72 hours, CCK-8, read-out: Cancer cell proliferation inhibitory activity Jurkat.

Where two headings read alike, the source gives them in different places.

Sequence of MLK1 (P80192 whole entry, looked up): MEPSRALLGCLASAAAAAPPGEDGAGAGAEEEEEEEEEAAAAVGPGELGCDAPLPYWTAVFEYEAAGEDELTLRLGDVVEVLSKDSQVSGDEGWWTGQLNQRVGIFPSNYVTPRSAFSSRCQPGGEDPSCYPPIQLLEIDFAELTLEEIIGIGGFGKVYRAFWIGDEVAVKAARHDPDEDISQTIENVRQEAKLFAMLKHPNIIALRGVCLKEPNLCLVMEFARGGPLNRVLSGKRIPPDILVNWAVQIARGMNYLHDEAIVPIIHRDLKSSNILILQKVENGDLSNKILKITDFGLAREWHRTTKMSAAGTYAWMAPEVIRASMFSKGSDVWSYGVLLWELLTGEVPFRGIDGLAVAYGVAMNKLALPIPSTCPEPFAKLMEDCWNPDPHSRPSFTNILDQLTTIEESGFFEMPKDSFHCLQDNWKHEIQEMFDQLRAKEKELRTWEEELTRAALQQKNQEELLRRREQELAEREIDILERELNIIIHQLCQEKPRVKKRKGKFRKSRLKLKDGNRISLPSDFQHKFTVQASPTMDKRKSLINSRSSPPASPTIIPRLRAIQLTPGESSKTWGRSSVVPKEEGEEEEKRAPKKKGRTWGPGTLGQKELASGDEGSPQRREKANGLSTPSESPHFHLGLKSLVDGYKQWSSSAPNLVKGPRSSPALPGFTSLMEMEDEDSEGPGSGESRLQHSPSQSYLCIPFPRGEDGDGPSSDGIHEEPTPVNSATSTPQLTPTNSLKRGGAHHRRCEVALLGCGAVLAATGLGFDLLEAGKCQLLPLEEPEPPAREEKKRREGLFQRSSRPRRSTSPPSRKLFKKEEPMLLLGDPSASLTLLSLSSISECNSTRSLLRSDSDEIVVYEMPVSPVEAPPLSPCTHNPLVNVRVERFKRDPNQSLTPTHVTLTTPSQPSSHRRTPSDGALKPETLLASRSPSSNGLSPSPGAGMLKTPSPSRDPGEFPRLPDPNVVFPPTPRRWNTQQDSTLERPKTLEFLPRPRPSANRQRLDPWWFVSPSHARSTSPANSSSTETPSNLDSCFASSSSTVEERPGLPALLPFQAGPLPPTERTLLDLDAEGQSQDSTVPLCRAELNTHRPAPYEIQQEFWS

With `CCS(=O)(=O)N1CC[C@H](Nc2c(Br)cnc3[nH]c(-c4cc(C)n(-c5cccc(C(=O)NCCN6CCN(C)CC6)c5)c4C)nc23)C1` [Example 71, (S)-3-(3-(6-bromo-7-((1-(ethylsulfonyl)pyrrolidine-3-yl)amino)-3H-imidazo[4,5-b]pyridine-2-yl)-2,5-dimethyl-1H-pyrrol-1-yl)-N-(2-(4-methylpiperazine-1-yl)ethyl)benzamide], the inhibition at 10 µM was 10 to 50% in experiment [1] (U-937, 72 h); above 50% in experiment [2] (setting [8]); above 50% in experiment [3] (72 h); below 10% in experiment [4] (setting [9]); above 50% in experiment [5] (setting [10]). Further, the figures for the IC50 in experiment [6] and in experiment [7] were 36 nM and 26 nM, respectively.

In the case of `CCS(=O)(=O)N1CC[C@H](Nc2c(Br)cnc3[nH]c(-c4cc(C)n(-c5ccc(C(=O)NCCN6CCN(C)CC6)cc5)c4C)nc23)C1` [Example 72, (S)-4-(3-(6-bromo-7-((1-(ethylsulfonyl)pyrrolidine-3-yl)amino)-3H-imidazo[4,5-b]pyridine-2-yl)-2,5-dimethyl-1H-pyrrol-1-yl)-N-(2-(4-methylpiperazine-1-yl)ethyl)benzamide], the inhibition at 10 µM was above 50% in experiment [1] (U-937, 72 h); above 50% in experiment [2] (setting [8]); above 50% in experiment [3] (72 h); 10 to 50% in experiment [4] (setting [9]); above 50% in experiment [5] (setting [10]). Besides, the IC50 in experiment [6] came out at 25 nM; in experiment [7], 15 nM.

With `CCS(=O)(=O)N1CC[C@H](Nc2c(Br)cnc3nc(-c4cc(C)n(-c5cc(NC(=O)CN(C)C)ccc5C)c4C)[nH]c23)C1` [Example 74, N-(3-(3-(6-bromo-7-(((S)-1-(ethylsulfonyl)pyrrolidine-3-yl)amino)-1H-imidazo[4,5-b]pyridine-2-yl)-2,5-dimethyl-1H-pyrrol-1-yl)-4-methylphenyl)-2-(dimethylamino) acetamide], the inhibition at 10 µM in experiment [1] (setting [11]) is above 50%; in experiment [2] (setting [12]), above 50%; in experiment [3] (10 μM, 72 hours, CCK-8), above 50%; in experiment [4] (setting [13]), above 50%; in experiment [5] (setting [14]), above 50%. In addition, the IC50 in experiment [6] is 43 nM; in experiment [7], 46 nM.

On to `CCS(=O)(=O)N1CC[C@H](Nc2c(Br)cnc3nc(-c4cc(C)n(-c5ccc(NC(=O)CN6CCN(C)CC6)cc5C)c4C)[nH]c23)C1` [Example 75, N-(4-(3-(6-bromo-7-(((S)-1-(ethylsulfonyl)pyrrolidine-3-yl)amino)-1H-imidazo[4,5-b]pyridine-2-yl)-2,5-dimethyl-1H-pyrrol-1-yl)-3-methylphenyl)-2-(4-methylpiperazine-1-yl) acetamide], for which the inhibition at 10 µM in experiment [1] (U-937, 72 h) was above 50%; in experiment [2] (setting [8]) it was above 50%; in experiment [3] (72 h), above 50%; in experiment [4] (setting [9]), above 50%; in experiment [5] (setting [10]) it was above 50%. For the same compound, the IC50 in experiment [6] came to 30 nM; in experiment [7], 16 nM.

As for `CCS(=O)(=O)N1CC[C@H](Nc2c(Br)cnc3nc(-c4cc(C)n(-c5ccc(NC(=O)CN6CCOCC6)cc5C)c4C)[nH]c23)C1` [Example 77, N—(4-(3-(6-bromo-7-(((S)-1-(ethylsulfony)pyrolidine-3-yl)amino)-1H-imidazo[4,5-b]pyridine-2-yl)-2,5-dimethyl-1H-pyrrol-1-yl)-3-methylphenyl)-2-morpholinoacetamide], the inhibition at 10 µM in experiment [1] (setting [11]) was above 50%; in experiment [2] (setting [12]) it was 10 to 50%; in experiment [3] (10 μM, 72 hours, CCK-8) it was above 50%; in experiment [4] (setting [13]) it was 10 to 50%; in experiment [5] (setting [14]), above 50%. The IC50 amounted to 19 nM in experiment [6] and 7 nM in experiment [7].

With `CCS(=O)(=O)N1CC[C@H](Nc2c(Br)cnc3nc(-c4cc(C)n(-c5cc(NC(=O)CN6CCOCC6)ccc5C)c4C)[nH]c23)C1` [Example 78, N-(3-(3-(6-bromo-7-(((S)-1-(ethylsulfonyl)pyrrolidine-3-yl)amino)-1H-imidazo[4,5-b]pyridine-2-yl)-2,5-dimethyl-1H-pyrrol-1-yl)-4-methylphenyl)-2-morpholinoacetamide], the inhibition at 10 µM was above 50% in experiment [1] (U-937, 72 h); above 50% in experiment [2] (setting [8]); above 50% in experiment [3] (72 h); above 50% in experiment [4] (setting [9]); above 50% in experiment [5] (setting [10]). The IC50 was determined as 25 nM in experiment [6] and 47 nM in experiment [7].

For the compound `CCS(=O)(=O)N1CC[C@H](Nc2c(Br)cnc3nc(-c4cc(C)n(-c5cccc(NC(=O)CCN(C)C)c5C)c4C)[nH]c23)C1` [Example 79], the inhibition at 10 µM in experiment [1] (U-937, 72 h) was above 50%; in experiment [2] (setting [8]) it was above 50%; in experiment [3] (72 h), above 50%; in experiment [4] (setting [9]) it was above 50%; in experiment [5] (setting [10]) it was above 50%. In addition, the IC50 in experiment [6] was found to be 35 nM; in experiment [7], 7 nM.

For `CCS(=O)(=O)N1CC[C@H](Nc2c(Br)cnc3nc(-c4cc(C)n(-c5cccc(C(=O)N6CCOCC6)c5C)c4C)[nH]c23)C1` [Example 83, (3-(3-(6-bromo-7-(((S)-1-(ethylsulfonyl)pyrrolidine-3-yl)amino)-1H-imidazo[4,5-b]pyridine-2-yl)-2,5-dimethyl-1H-pyrrol-1-yl)-2-methylphenyl) (morpholino) methanone], the inhibition at 10 µM is above 50% in experiment [1] (U-937, 72 h); above 50% in experiment [2] (setting [8]); above 50% in experiment [3] (72 h); 10 to 50% in experiment [4] (setting [9]); above 50% in experiment [5] (setting [10]). In addition, the 50% inhibitory concentration (IC50) in experiment [6] was determined as 22 nM; in experiment [7] it was 12 nM.

For the compound `CCS(=O)(=O)N1CC[C@H](Nc2c(Br)cnc3nc(-c4cc(C)n(-c5cccc(NC(=O)CN6CCN(C)CC6)c5C)c4C)[nH]c23)C1` [Example 87, N-(3-(3-(6-bromo-7-(((S)-1-(ethylsulfonyl)pyrrolidine-3-yl)amino)-1H-imidazo[4,5-b]pyridine-2-yl)-2,5-dimethyl-1H-pyrrol-1-yl)-2-methylphenyl)-2-(4-methylpiperazine-1-yl) acetamide], the inhibition at 10 µM in experiment [1] (U-937, 72 h) was above 50%; in experiment [2] (setting [8]) it was above 50%; in experiment [3] (72 h) it was above 50%; in experiment [4] (setting [9]) it was above 50%; in experiment [5] (setting [10]), above 50%. Also, the IC50 came out at 24 nM in experiment [6] and 13 nM in experiment [7].

As to `Cc1ccc(NC(=O)CN2CCN(C)CC2)cc1-n1c(C)cc(-c2nc3ncc(Br)c(Nc4cccc(S(N)(=O)=O)c4)c3[nH]2)c1C` [Example 89, N-(3-(3-(6-bromo-7-((3-sulfamoylphenyl)amino)-1H-imidazo[4,5-b]pyridine-2-yl)-2,5-dimethyl-1H-pyrrol-1-yl)-4-methylphenyl)-2-(4-methylpiperazine-1-yl) acetamide], the inhibition at 10 µM is below 10% in experiment [1] (setting [11]); 10 to 50% in experiment [2] (setting [12]); 10 to 50% in experiment [3] (10 μM, 72 hours, CCK-8); below 10% in experiment [4] (setting [13]); 10 to 50% in experiment [5] (setting [14]). Moreover, the IC50 in experiment [6] stood at 169 nM; in experiment [7] it was 81 nM.

Consider `Cc1ccc(NC(=O)CN(C)C)cc1-n1c(C)cc(-c2nc3ncc(Br)c(Nc4cccc(S(N)(=O)=O)c4)c3[nH]2)c1C` [Example 90, N-(3-(3-(6-bromo-7-((3-sulfamoylphenyl)amino)-1H-imidazo[4,5-b]pyridine-2-yl)-2,5-dimethyl-1H-pyrrol-1-yl)-4-methylphenyl)-2-(dimethylamino) acetamide], for which the inhibition at 10 µM in experiment [1] (setting [11]) was 10 to 50%; in experiment [2] (setting [12]) it was 10 to 50%; in experiment [3] (10 μM, 72 hours, CCK-8), above 50%; in experiment [4] (setting [13]) it was 10 to 50%; in experiment [5] (setting [14]), above 50%. Further, the figures for the IC50 in experiment [6] and in experiment [7] were 160 nM and 92 nM, respectively.

Take `CCS(=O)(=O)N1CC[C@H](Nc2c(Br)cnc3nc(-c4cc(C)n(-c5cc(C(=O)N6CCOCC6)ccc5C)c4C)[nH]c23)C1` [Example 91, (3-(3-(6-bromo-7-(((S)-1-(ethylsulfonyl)pyrrolidine-3-yl)amino)-1H-imidazo[4,5-b]pyridine-2-yl)-2,5-dimethyl-1H-pyrrol-1-yl)-4-methylphenyl) (morpholino) methanone]: the inhibition at 10 µM in experiment [1] (U-937, 72 h) is above 50%; in experiment [2] (setting [8]) it was above 50%; in experiment [3] (72 h), above 50%; in experiment [4] (setting [9]), above 50%; in experiment [5] (setting [10]), above 50%. Also, the half-inhibitory concentration (IC50) in experiment [6] is 19 nM; in experiment [7], 25 nM.

For orientation: IC50 means the concentration that inhibits the measured activity by half.
